Where two headings read alike, the source gives them in different places.
Assays:
[1] = molecular target: norepinephrine transporter (NET) (Rattus norvegicus, UniProt Q9WTR4); test: Norepinephrine reuptake ([^3H]norepinephrine uptake) inhibition in rat brain synaptosomes
Protocol: Freshly removed whole brain minus cerebellum and caudate was homogenized in 10% ice-cold sucrose with 12 strokes of a hand-held Potter-Elvehjem homogenizer followed by centrifugation at 1000×g for 10 minutes. The supernatants were saved on ice and used immediately. Transporter activity at NET was assessed using 10 nM [^3H]norepinephrine. […] Uptake inhibition assays were conducted at 37° C. and were initiated by adding 100 μL of tissue to 900 μL assay buffer containing test drug and [^3H]norepinephrine. Test drugs were diluted in assay buffer containing 1 mg/mL bovine serum albumin. Nonspecific uptake was measured by incubating in the presence of 10 μM indatraline. The reactions were stopped after 10 minutes by rapid vacuum filtration with a cell harvester (BRANDEL) over GF/B filters (Whatman) presoaked in wash buffer maintained at 25° C. (10 mM Tris-HCl, pH 7.4/150 mM NaCl). Filters were rinsed with 6 mL wash buffer and retained tritium was quantified by a MicroBeta liquid scintillation counter (PerkinElmer) after overnight extraction in 0.6 mL of liquid scintillation cocktail (Cytoscint, ICN). The data from three experiments were pooled and fit to a dose-response curve equation (using Kaleidagraph), to yield an Emax and EC50 value.
(§1) The data from three experiments were pooled and fit to a dose-response curve equation (using KaleidaGraph; Synergy Software, Reading, Pa.) to yield an Emax and IC50 value.

[2] = molecular target: dopamine transporter (DAT) (Rattus norvegicus, UniProt P23977); test: Dopamine reuptake ([^3H]dopamine uptake) inhibition in rat brain synaptosomes; conditions: for IC50: DA Uptake EC50 (nM ± SD), rat caudate synaptosomes, 5 nM [^3H]dopamine, 15 min, 25° C., three experiments pooled
Protocol: Freshly removed caudate was homogenized in 10% ice-cold sucrose with 12 strokes of a hand-held Potter-Elvehj em homogenizer followed by centrifugation at 1000×g for 10 min. The supernatants were saved on ice and used immediately. Transporter activity was assessed using 5 nM [^3H]dopamine. […] The selectivity of the uptake assay for dopamine active transporter (DAT) was optimized by including 100 nM citalopram and 100 nM desipramine as blockers of serotonin transporter (SERT) and norepinephrine transporter (NET) in the sucrose solution and assay buffer. Uptake inhibition assays were conducted at 25° C. and were initiated by adding 100 μl of tissue to 900 μL assay buffer containing test drug and [^3H]dopamine. Test drugs were diluted in assay buffer containing 1 mg/mL bovine serum albumin. Nonspecific uptake was measured by incubating in the presence of 10 μM indatraline. The reactions were stopped after 15 minutes by rapid vacuum filtration with a cell harvester (BRANDEL) over GF/B filters (Whatman) presoaked in wash buffer maintained at 25° C. (10 mM Tris-HCl, pH 7.4/150 mM NaCl). Filters were rinsed with 6 mL wash buffer and retained tritium was quantified by a MicroBeta liquid scintillation counter (PerkinElmer) after overnight extraction in 0.6 mL of liquid scintillation cocktail (Cytoscint, ICN). The data from three experiments were pooled and fit to a dose-response curve equation (using Kaleidagraph), to yield an Emax and EC50 value.
as §1

[3] = molecular target: T1, serotonin transporter (SERT) (Rattus norvegicus, UniProt P31652); test: Serotonin reuptake ([^3H]serotonin uptake) inhibition in rat brain synaptosomes; assay type: biochemical
T1 construct: Freshly removed whole brain minus cerebellum and caudate was homogenized; from tissue; host or cells: rat whole brain minus cerebellum and caudate, synaptosomes

[4] = read-out: DA Uptake Emax (% I ± SD)

T1 sequence (P31652 whole entry): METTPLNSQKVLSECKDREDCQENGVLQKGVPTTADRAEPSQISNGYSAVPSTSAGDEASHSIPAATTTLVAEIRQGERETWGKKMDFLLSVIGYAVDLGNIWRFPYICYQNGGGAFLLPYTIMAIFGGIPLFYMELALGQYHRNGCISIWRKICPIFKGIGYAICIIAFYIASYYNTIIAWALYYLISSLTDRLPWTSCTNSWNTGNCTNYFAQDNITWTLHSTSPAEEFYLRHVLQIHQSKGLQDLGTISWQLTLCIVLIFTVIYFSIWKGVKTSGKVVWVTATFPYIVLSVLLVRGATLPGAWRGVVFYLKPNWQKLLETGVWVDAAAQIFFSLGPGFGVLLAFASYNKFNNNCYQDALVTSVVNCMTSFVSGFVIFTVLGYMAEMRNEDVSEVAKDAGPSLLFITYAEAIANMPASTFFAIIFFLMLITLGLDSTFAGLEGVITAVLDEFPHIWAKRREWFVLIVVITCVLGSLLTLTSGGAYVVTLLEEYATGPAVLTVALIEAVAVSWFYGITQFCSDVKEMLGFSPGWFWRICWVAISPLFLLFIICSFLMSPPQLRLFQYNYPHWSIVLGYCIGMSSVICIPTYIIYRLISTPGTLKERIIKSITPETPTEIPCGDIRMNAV
dopamine transporter (DAT), sequence (P23977 whole entry): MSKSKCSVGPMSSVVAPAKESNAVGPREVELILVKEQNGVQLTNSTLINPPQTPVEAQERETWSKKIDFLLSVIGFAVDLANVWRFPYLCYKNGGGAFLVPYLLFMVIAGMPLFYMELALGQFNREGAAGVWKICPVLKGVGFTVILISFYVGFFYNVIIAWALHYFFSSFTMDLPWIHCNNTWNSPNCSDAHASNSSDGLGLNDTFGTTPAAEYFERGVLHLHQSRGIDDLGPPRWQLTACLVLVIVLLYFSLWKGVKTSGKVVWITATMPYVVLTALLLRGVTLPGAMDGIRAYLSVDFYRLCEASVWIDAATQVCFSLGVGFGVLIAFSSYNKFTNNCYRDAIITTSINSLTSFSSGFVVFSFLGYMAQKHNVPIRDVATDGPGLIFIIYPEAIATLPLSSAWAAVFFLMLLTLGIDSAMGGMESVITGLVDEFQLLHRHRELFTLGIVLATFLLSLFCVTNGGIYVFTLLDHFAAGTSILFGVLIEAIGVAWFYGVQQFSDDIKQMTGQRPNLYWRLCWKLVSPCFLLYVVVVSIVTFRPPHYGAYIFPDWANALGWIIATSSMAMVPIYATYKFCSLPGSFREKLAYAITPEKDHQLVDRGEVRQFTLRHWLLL

| SMILES | IC50 [2] [nM] | Emax [2, 4] [%] | melting point [°C] | also measured |
| --- | --- | --- | --- | --- |
| OC(CNc1nc(-c2ccc3nccn3c2)nc2ccccc12)(c1ccccc1)c1ccccc1 [compound 96, 2-((2-(Imidazo[1,2-A]Pyridin-6-yl)Quinazolin-4-yl)Amino)-1,1-Diphenylethanol] | 9.2 ± 1.2 | 70 ± 1 | – | NE Uptake Emax (% I ± SD) ([1]; rat brain synaptosomes, 10 nM [^3H]norepinephrine, maximal inhibition from dose-response fit): 65 ± 3 % I; IC50 ([1]; read-out: NE Uptake EC50 (nM ± SD), rat brain synaptosomes, 10 nM [^3H]norepinephrine, 10 min, 37° C.): 98 ± 23 nM; IC50 ([3]; rat brain synaptosomes, 5 nM [^3H]serotonin, 30 min, 25° C., read-out: 5HT Uptake EC50 (nM ± SD)): 16 ± 5 nM; Emax ([3]; rat brain synaptosomes, 5 nM [^3H]serotonin, maximal inhibition from dose-response fit, read-out: 5HT Uptake Emax (% I ± SD)): 55 ± 2% |
| CC(C)C(CNc1nc(N2CCc3[nH]ccc3C2)nc2ccccc12)c1ccccc1 (stereo not drawn) [compound 201, 2-(6,7-Dihydro-1H-Pyrrolo[3,2-c]Pyridin-5(4H)-yl)-N-(3-Methyl-2-Phenylbutyl)Quinazolin-4-Amine] | 7.2 ± 2.6 | 88 ± 5 | 221 to 223 | – |
| c1ccc(CC(Nc2nc(-c3ccc4nccn4c3)nc3ccccc23)c2ccccc2)cc1 (stereo not drawn) [compound 165, N-(1,2-Diphenylethyl)-2-(Imidazo[1,2-A]pyridin-6-yl)Quinazolin-4-Amine] | 14 ± 2 | 78 ± 2 | 203 to 204 | – |
| c1ccc(C(CNc2nc(-c3ccc4[nH]nnc4c3)nc3ccccc23)c2ccccc2)cc1 [compound 63, 2-(1H-Benzo[D][1,2,3]Triazol-5-yl)-N-(2,2-Diphenylethyl)Quinazolin-4-Amine] | 192 ± 37 | 72 ± 3 | 220 | – |
| c1ccc(C(CNc2nc(-c3ccc4ncccc4c3)nc3ccccc23)c2ccccc2)cc1 [compound 50, N-(2,2-Diphenylethyl)-2-(Quinolin-6-yl)Quinazolin-4-Amine] | 26 ± 7 | 68 ± 3 | 92 | – |
| c1ccc(C(c2ccccc2)N2CC(Nc3nc(-c4ccc5nccn5c4)nc4ccccc34)C2)cc1 [compound 148, N-(1-Benzhydrylazetidin-3-yl)-2-(Imidazo[1,2-A]Pyridin-6-yl)Quinazolin-4-Amine] | 91 ± 21 | 81 ± 3 | 67 to 69 | – |
| Cc1cc2nccn2cc1-c1nc(NC(CCc2ccccc2)c2ccccc2)c2ccccc2n1 (stereo not drawn) [compound 167, N-(1,3-Diphenylpropyl)-2-(7-Methylimidazo[1,2-A]Pyridin-6-yl)Quinazolin-4-Amine] | 9.4 ± 2.3 | 76 ± 3 | 119 to 120 | – |
| Cc1cc2nccn2cc1-c1nc(NCC(c2ccccc2)C2CC2)c2ccccc2n1 (stereo not drawn) [compound 179, N-(2-Cyclopropyl-2-Phenylethyl)-2-(7-Methylimidazo[1,2-A]Pyridin-6-yl)Quinazolin-4-Amine] | 3 ± 1 | 80 ± 4 | 236 to 238 | – |
| Cc1cc2nccn2cc1-c1nc(NCC(c2ccncc2)c2ccc[nH]2)c2ccccc2n1 (stereo not drawn) [compound 185, 2-(7-Methylimidazo[1,2-A]Pyridin-6-yl)-N-(2-(Pyridin-4-yl)-2-(1H-Pyrrol-2-yl)Ethyl)Quinazolin-4-Amine] | 11 ± 2 | 71 ± 2 | 214 to 216 | – |
| COC(=O)[C@H]1[C@@H](OC(=O)c2ccccc2)C[C@@H]2CC[C@H]1N2C [cocaine, reference compound] | – | – | – | NET Uptake Emax ([1]; mean ± S.D., n = 3): 102 ± 2%; Emax ([2]; read-out: DAT Uptake Emax): 100 ± 2%; Emax ([3]; read-out: SERT Uptake Emax): 98 ± 2% |
| c1ccc(C(CNc2nc(N3CCc4ccccc4C3)nc3ccccc23)c2ccccc2)cc1 [compound 193, 2-(3,4-Dihydroisoquinolin-2(1H)-yl)-N-(2,2-Diphenylethyl)Quinazolin-4-Amine] | 1.7 ± 0.4 | 77 ± 3 | 250 to 253 | – |
| Cc1cc2nccn2cc1-c1nc(NCC(C)c2ccccc2)c2ccccc2n1 (stereo not drawn) [compound 184, 2-(7-Methylimidazo[1,2-A]Pyridin-6-yl)-N-(2-Phenylpropyl)Quinazolin-4-Amine] | 5.3 ± 2 | 81 ± 4 | 208 to 212 | – |
| c1ccc(C(CNc2nc(-c3ccc4[nH]ncc4c3)nc3ccccc23)c2ccccc2)cc1 [compound 40, N-(2,2-Diphenylethyl)-2-(1H-Indazol-5-yl)Quinazolin-4-Amine] | 124 ± 37 | 74 ± 4 | 191 | – |
| COCCNc1ncc(-c2nc(NCC(c3ccccc3)c3ccccc3)c3ccccc3n2)cn1 [compound 47, N-(2,2-Diphenylethyl)-2-(2-((2-Methoxyethyl)Amino)Pyrimidin-5-yl)Quinazolin-4-Amine] | 148 ± 40 | 73 ± 4 | 199 | – |
| CCN(CC)C(=O)[C@]1(c2ccccc2)C[C@@H]1CNc1nc(-c2cn3ccnc3cc2C)nc2ccccc12 [compound 171, (1R,2S)—N,N-Diethyl-2-(((2-(7-Methylimidazo[1,2-A]pyridin-6-yl)Quinazolin-4-yl)Amino)Methyl)-1-Phenylcyclopropanecarboxamide] | 16 ± 7 | 73 ± 5 | 225 to 228 | – |
| c1ccc(C(CNc2nc(-c3ccc4nccnc4c3)nc3ccccc23)c2ccccc2)cc1 [compound 56, N-(2,2-Diphenylethyl)-2-(Quinoxalin-6-yl)Quinazolin-4-Amine] | 89 ± 13 | 70 ± 2 | 198 | – |
| c1ccc(C(CNc2nc(N3CCc4c([nH]c5ccccc45)C3)nc3ccccc23)c2ccccc2)cc1 [compound 190, 2-(3,4-Dihydro-1H-Pyrido[3,4-B]Indol-2(9H)-yl)-N-(2,2-Diphenylethyl)Quinazolin-4-Amine] | 6.9 ± 2 | 80 ± 3 | 185 to 187 | – |
| c1ccc(C(CNc2nc(-c3cnc4[nH]ccc4c3)nc3ccccc23)c2ccccc2)cc1 [compound 123, N-(2,2-Diphenylethyl)-2-(1H-Pyrrolo[2,3-B]Pyridin-5-yl)Quinazolin-4-Amine] | 31 ± 5 | 69 ± 2 | 193 | – |
| CC(C)(C)OC(=O)n1cc(-c2nc(NCC(c3ccccc3)c3ccccc3)c3ccccc3n2)c2cccnc21 [compound 73, Tert-Butyl 3-(4-((2,2-Diphenylethyl)Amino)Quinazolin-2-yl)-1H-Pyrrolo[2,3-B]Pyridine-1-Carboxylate] | 1310 | < 100 | 105 | – |
| c1ccc(C(CNc2nc(-c3ccc4[nH]ccc4c3)nc3ccccc23)c2cccnc2)cc1 (stereo not drawn) [compound 130, 2-(1H-Indol-5-yl)-N-(2-Phenyl-2-(Pyridin-3-yl)Ethyl)Quinazolin-4-Amine] | 40 ± 5 | 74 ± 2 | 109 to 111 | – |
| c1ccc2c(NCC(c3ccncc3)c3ccncc3)nc(N3CCc4[nH]ccc4C3)nc2c1 [compound 174, N-(2,2-Di(pyridin-4-yl)Ethyl)-2-(6,7-Dihydro-1H-Pyrrolo[3,2-C]Pyridin-5(4H)-yl)Quinazolin-4-Amine] | 31 ± 10 | 88 ± 4 | 224 to 226 | – |
| c1ccc(C(CNc2nc(N3Cc4ccccc4C3)nc3ccccc23)c2ccccc2)cc1 [compound 189, N-(2,2-Diphenylethyl)-2-(Isoindolin-2-yl)Quinazolin-4-Amine] | 24 ± 7 | 83 ± 4 | 293 to 295 | – |
| CS(=O)(=O)Nc1ccc(-c2nc(NCC(c3ccccc3)c3ccncc3)c3ccccc3n2)cc1 (stereo not drawn) [SRI-30524] | – | – | – | NET Uptake Emax ([1]; mean ± S.D., n = 3): 76 ± 2%; IC50 ([1]; read-out: NET Uptake IC50, mean ± S.D., n = 3): 44 ± 6 nM; IC50 ([3]; mean ± S.D., n = 3, read-out: SERT Uptake IC50): 8.7 ± 0.9 nM |
| Cc1cc2nccn2cc1-c1nc(NCCc2cccnc2)c2ccccc2n1 [compound 180, 2-(7-Methylimidazo[1,2-A]Pyridin-6-yl)-N-(2-(Pyridin-3-yl)Ethyl)Quinazolin-4-Amine] | 252 ± 22 | 73 ± 1 | 241 to 244 | – |
| c1ccc(C(CCNc2nc(-c3ccc4nccn4c3)nc3ccccc23)c2ccccc2)cc1 [compound 87, N-(3,3-Diphenylpropyl)-2-(Imidazo[1,2-A]Pyridin-6-yl)Quinazolin-4-Amine] | 78 ± 9 | 75 ± 1 | 237 | – |
| c1ccc(CC(CNc2nc(-c3ccc4nccn4c3)nc3ccccc23)c2ccccc2)cc1 (stereo not drawn) [compound 136, N-(2,3-Diphenylpropyl)-2-(imidazo[1,2-a]pyridin-6-yl)quinazolin-4-amine] | 34 ± 4 | 78 ± 2 | 208 to 210 | – |

Source: US9873702B2, “Heterocyclic compounds as biogenic amine transport modulators” (Southern Research Institute, priority 2014, dated 2018)
